According to US20240108634A1, “COMPOSITIONS AND METHODS FOR INHIBITING YAP” (The United States Government as represented by the …, priority 2021, published 2024):

Target: T1, full-length YAP (Homo sapiens, UniProt P46937)
T1 construct: made in house; host or cells: bacterial (inferred)
Assay: Surface plasmon resonance of NSC682769 analyte on immobilized full-length YAP
Conditions: SPR, 25° C., read-out: Kd from steady-state binding
Description: FIGS. 1A-G show the identification of a YAP1-TEAD1 binding interface inhibitor. […] The Gal4 DBD was fused to residues 50-171 of human YAP1 and the Gal4 AD was fused to residues 194-411 of human TEAD1. These fusions were expressed in yeast containing reporters harboring Gal4 upstream activating sequences (UAS). […] Yeast expressing either p53-DBD and SV40 large T antigen-AD fusions or YAP1-DBD and TEAD1-AD fusions were plated on selective media. Compounds were pinned onto the plate surfaces by robotic transfer and subsequently examined for halo formation (indicated by red circles). Compounds inhibiting YAP1-TEAD1 mediated growth on selective media while having no effect on p53-T antigen mediated yeast growth were considered specific. […] Pull-down products were analyzed by SDS-PAGE and silver staining. […] Raw binding sensorgrams obtained at each concentration were fitted to a 1:1 binding model and Kon, Koff and KD were calculated by simultaneous non-linear regression analyses.
Surface plasmon resonance (SPR), ELISA, YAP-TEAD reporter activity, cellular fractionation, and immunofluorescence analyses. […] YAP-TEAD reporter activity was determined as previously described (Kim N G, Gumbiner B M (2015) J Cell Biol 210: 503-515). […] Luciferase activity was measured via a luciferase assay system (Promega). […] Cell lysis was monitored by trypan blue staining. […]

T1 sequence (P46937 whole entry): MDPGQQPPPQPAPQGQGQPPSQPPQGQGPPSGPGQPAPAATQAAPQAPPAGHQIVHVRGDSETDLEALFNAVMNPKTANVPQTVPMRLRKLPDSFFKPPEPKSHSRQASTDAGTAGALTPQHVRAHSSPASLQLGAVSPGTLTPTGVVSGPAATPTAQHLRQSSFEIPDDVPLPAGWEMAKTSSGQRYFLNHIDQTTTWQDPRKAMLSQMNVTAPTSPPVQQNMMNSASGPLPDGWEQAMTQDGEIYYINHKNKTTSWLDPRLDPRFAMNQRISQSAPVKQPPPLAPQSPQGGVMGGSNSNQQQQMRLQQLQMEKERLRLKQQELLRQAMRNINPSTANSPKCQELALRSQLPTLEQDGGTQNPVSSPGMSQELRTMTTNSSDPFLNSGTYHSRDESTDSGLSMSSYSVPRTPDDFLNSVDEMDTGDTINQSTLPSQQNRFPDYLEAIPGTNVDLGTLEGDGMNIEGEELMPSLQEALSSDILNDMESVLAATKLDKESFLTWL

Work on COc1ccc(-c2cc(-c3ccccc3)nc3c2CC(=O)Nc2ccccc2-3)cc1OC [NSC682769] yielded a Kd of 738 nM.
